Test results from patent US12133486B2, “Methods of propagation of arbuscular mycorrhizal fungi (AMF) and uses thereof” (Terra Microbes, LLC, priority 2021, dated 2024).

Test system: AM fungi
Test: Field plot study: AMF spore counts in soil around western wheatgrass roots
Format: in vivo
Details: field plots; for Total Spores t = 47 days / Total Spores t = 0 days: mean n = 3, P added at 120 kg/ha (KCl: same K); for Total Spores t = 47 days / spore numbers compared with the control: second sampling; for Total Spores t = 0 days: t = 0 = first sampling, 14 days after treatment; for spore numbers compared with the control: t = 47
Excerpt: Twelve plots of size 50 cm by 50 cm were established on a homogenous site 2.54 meters (running northeast and southwest) by 4.06 meters (running southeast and northwest). Plant distribution was mostly homogeneous across the entire site, with western wheatgrass dominant. The plots were in four rows with three plots in each row. Within a row plots were 25 cm apart. Rows were 50 cm apart. An experimental unit was one plot. Treatments were replicated three times. Treatments included: controls (no treatment), potassium chloride treatment, potassium phosphate treatment, and potassium phosphite treatment. (See, FIG. 2).
In this study phosphorus, either as phosphate or phosphite, was added at a rate of 120 kg of P per hectare (ha). Scaled down this equates to 3 grams of phosphorous per plot. One ha is 10,000 m^2. Each plot is 50 cm by 50 cm, or 0.25 m^2. The subsequent calculation then is 120 Kg/10,000 m^2=X/0.25 m^2; X=3.00 grams of P per plot. (See Table 2).
Treatments: All plots received the same amount of solution. The control plots were treated with distilled water only (6.375 L). The KCl plots treated with distilled water containing the same amount of K as was needed to convert the phosphorous acid (H3PO3) to dipotassium phosphite (K2HPO3). The phosphate plots were treated with sufficient dipotassium phosphate (K2HPO4) to deliver 3 g of P per plot dissolved in the same amount of distilled water as the control plots received and the KCl plots received. The phosphite plots were treated with sufficient dipotassium phosphite (K2HPO3) to deliver 3 g of P per plot dissolved in the same amount of distilled water as the control plots received, the KCl plots received and the phosphate plots received.
The field experiment reported in this example was conducted during June through October. Plots were established during early June and treated on the 15th and 16th day (as in Example 3 above). The first soil and root sampling was performed 14 days later (t=14). The second set of samples were taken 47 days later (t=61), and the third set 60 days later (t=121 days). Sample size and depth was as detailed above in Example 3.
AMF spores were evaluated in soil samples from which plant roots including plant roots of western wheatgrass had existed and had been removed. Evaluations were performed on the T=0 and the T=47 samples. These evaluations generally entailed mixing the sample with water, centrifugation, and decanting water. This step was performed to remove light organic matter and other light materials, e.g., leaf fragments. This was followed by mixing the soil with a solution of sodium hexametaphosphate (2%) in 2 M sucrose. Centrifugation results in the spores floating on the sucrose solution or suspended in it. The sucrose solution plus spores is decanted into a separatory funnel. The suspension was allowed to exit the funnel one drop at a time. The spores adhere to the inside of the funnel and once all liquid has exited the funnel the spores are washed into a petri-dish and counted under a dissecting microscope.
The specific protocol for spore extraction was as follows: • A) Weigh 5 g of air dried soil into a 20 ml centrifuge tube. For a complete sample this is replicated four times. • B) Fill each tube with water to ˜1.5 cm of the top. Stir to suspend organic matter and other light debris. Let all tubes stand for 10 minutes. • C) Centrifuge at 2000 rpm (475.2×g) for 10 minutes. Be sure tubes are placed across from each other in the centrifuge and are within 0.1 g of the same weight. • D) Pour off and discard supernatant while stirring surface and rotating tube. • E) If much organic matter and other light material remains, repeat steps B through D. • F) Add sucrose/sodium hexametaphosphate solution (2 molar sucrose containing 2% hexametaphosphate: 684.6 g of sucrose (store grade is adequate) and 20 g of sodium hexametaphosphate in one liter of solution using distilled water) to centrifuge tubes to ˜1.5 cm of top. […]

OP(O)O [PO3, dipotassium phosphite]
Total Spores t = 47 days: 17896Ab Per 100 g soil
Total Spores t = 47 days (listed as phosphite): 17,896 Per 100 g soil
Total Spores t = 0 days: 6429Aa Per 100 g soil
spore numbers compared with the control: significant increase in spore numbers from the control

O=P([O-])([O-])O.[K+].[K+] [PO4, dipotassium phosphate]
Total Spores t = 47 days: 12960Ab Per 100 g soil
Total Spores t = 0 days: 4998Aa Per 100 g soil
spore numbers compared with the control: significant increase in spore numbers from the control
